According to US7285556B2, “Thienopyrimidine-based inhibitors of the src family” (Board of Regents, The University of Texas Systems, priority 2000, dated 2007):
pIC50: −log10 of the molar value. Read-outs that look alike come from different tables or passages of the source.

Key:
Assay type in all cases: biochemical
[1] = molecular target: T1, Recombinant human Src (Homo sapiens, UniProt P12931); assay: Src tyrosine kinase activity, poly E4Y and 32P-ATP
T1 construct: made in house; host or cells: baculovirus-insect cell system
In short: (§1)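 Recombinant GST-Csk (E. coli) or baculovirus-expressed human Src assayed on poly E4Y in 0.15 M EPPS-NaOH pH 8.0, 6 mM MgCl2, 0.2 mM γ32P-ATP, 10% glycerol, 0.1% Triton X-100. Read-out is 32P incorporation into poly E4Y; for ATP variation (0–250 μM), poly E4Y held at 150 μg/ml.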

[2] = molecular target: T2, Csk (Homo sapiens, UniProt P41240); assay: Csk tyrosine kinase activity, poly E4Y and 32P-ATP
T2 construct: GST (glutathione-S-transferase) (N); made in house; host or cells: E. coli (pGEX vector)
In short: as §1

[3] = molecular target: FGF receptor (FGFr) (Homo sapiens, UniProt P11362); assay: FGFr tyrosine kinase activity, poly E4Y and 32P-ATP
Method: Recombinant human Src was expressed using the baculovirus-insect cell system and purified as published (Budde et al., 1993 and 2000). Recombinant Csk and the FGF receptor (FGFr) were expressed as glutathione-S-transferase fusion proteins using the pGEX expression vector and E. coli, and purified as described (Sun & Budde, 1995). The tyrosine kinase activity of Src, Csk and FGFr was determined using poly E4Y and ^32P-ATP. Briefly, enzymes were assayed in a reaction mixture consisting of 0.15 M EPPS-NaOH (pH 8.0) with 6 mM MgCl2, 0.2 mM γ^32P-ATP (0.2-0.4 mCi/μmol), 10% glycerol, 0.1% Triton X-100, and poly E4Y. Poly E4Y is a synthetic peptide whose phosphorylation is measured in this assay by the addition of the radioactively labeled phosphate from the ATP (Budde et al., 1995). […] When ATP was varied (0, 50, 100 and 250 μM), poly E4Y was kept constant at 150 μg/ml. […] From this screening, the thienopyrimidine-based scaffold was identified as one of the chemical structures to pursue. […] These analogues were screened against Src, Csk and FGFr (Table 2, Table 3, and Table 4).

[4] = Table 4, NI = no inhibition upto 50 ug/mL
[5] = screening assay, 50 μg/ml poly E4Y, 0.2 mM 32P-ATP
[6] = Table 2, read-out: Src IC50 (especially good inhibitors of Src)
[7] = read-out: IC50 (preferred compounds for treatment of Src family-related disease)

T2 sequence (P41240 whole entry, species assumed): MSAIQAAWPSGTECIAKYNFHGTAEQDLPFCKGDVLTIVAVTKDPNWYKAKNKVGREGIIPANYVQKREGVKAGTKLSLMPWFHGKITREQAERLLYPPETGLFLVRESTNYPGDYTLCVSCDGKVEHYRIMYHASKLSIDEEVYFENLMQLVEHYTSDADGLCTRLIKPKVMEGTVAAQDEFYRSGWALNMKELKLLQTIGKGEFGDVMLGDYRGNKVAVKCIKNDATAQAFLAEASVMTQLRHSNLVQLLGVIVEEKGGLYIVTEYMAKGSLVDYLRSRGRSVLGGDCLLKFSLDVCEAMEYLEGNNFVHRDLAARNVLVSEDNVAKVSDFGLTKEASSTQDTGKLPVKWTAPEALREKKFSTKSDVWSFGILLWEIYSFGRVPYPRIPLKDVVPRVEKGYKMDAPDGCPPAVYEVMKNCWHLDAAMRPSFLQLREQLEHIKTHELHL
Chain of FGF receptor (FGFr) (P11362 398-822): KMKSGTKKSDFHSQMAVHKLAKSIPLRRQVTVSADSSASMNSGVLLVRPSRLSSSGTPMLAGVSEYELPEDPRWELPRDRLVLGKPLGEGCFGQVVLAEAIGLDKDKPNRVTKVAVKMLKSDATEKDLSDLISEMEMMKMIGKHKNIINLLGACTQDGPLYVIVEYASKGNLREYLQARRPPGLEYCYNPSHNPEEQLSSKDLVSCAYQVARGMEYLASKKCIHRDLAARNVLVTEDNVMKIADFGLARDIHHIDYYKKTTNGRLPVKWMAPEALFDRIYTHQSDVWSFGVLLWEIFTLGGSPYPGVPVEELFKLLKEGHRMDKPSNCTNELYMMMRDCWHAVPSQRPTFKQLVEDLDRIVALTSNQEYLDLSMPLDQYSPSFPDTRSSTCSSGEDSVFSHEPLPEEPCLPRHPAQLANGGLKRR

1-Hydroxy-1-methyl-1,1-di-[3-hydroxy-4-methoxybenzaldehyde(7-methylthieno[3,2-d]pyrimidin-4-yl)hydrazone]methane [Compound 502]
pIC50 ([1]; Table 4, read-out: Src IC50): 5.06
Csk IC50 [2, 4]: NI (NI = no inhibition upto 50 ug/mL)
FGFr IC50 [3, 4]: NI (NI = no inhibition upto 50 ug/mL)

1-Hydroxy-1-methyl-1,1-di-[4-carboxybenzaldehyde(7-methylthieno[3,2-d]pyrimidin-4-yl)hydrazone]methane [Compound 500]
pIC50 ([1]; Table 4, read-out: Src IC50): 5.28
pIC50 [2, 4]: 4.24
FGFr IC50 [3, 4]: NI (NI = no inhibition upto 50 ug/mL)

Cc1csc2c(NN=Cc3ccc(C(F)(F)F)cc3)ncnc12 [Compound 9, 4-Trifluoromethylbenzaldehyde(7-methylthieno[3,2-d]pyrimidin-4-yl)hydrazone]
Csk IC50 [2, 5]: NI (NI = no inhibition up to 50 ug/mL)
FGFr IC50 [3, 5]: NI (NI = no inhibition up to 50 ug/mL)

Cc1csc2c(NN=Cc3cccc(Br)c3)ncnc12 [Compound 57, 3-Bromobenzaldehyde(7-methylthieno[3,2-d]pyrimidin-4-yl)hydrazone]
Csk IC50 [2, 5]: NI (NI = no inhibition up to 50 ug/mL)
FGFr IC50 [3, 5]: NI (NI = no inhibition up to 50 ug/mL)

C(=NNc1ncnc2cc(-c3ccsc3)sc12)c1cccnc1 [Compound 223, 3-Pyridinecarboxaldehyde(6-(3-thienyl)thieno[3,2-d]pyrimidin-4-yl)hydrazone]
Csk IC50 [2, 5]: NI (NI = no inhibition up to 50 ug/mL)
FGFr IC50 [3, 5]: NI (NI = no inhibition up to 50 ug/mL)

Cc1c(I)sc2c(NN=Cc3cccnc3)ncnc12 [Compound 372, 3-Pyridinecarboxaldehyde(6-iodo-7-methylthieno[3,2-d]pyrimidin-4-yl)hydrazone]
pIC50 [1, 6]: ≥ 5.70
pIC50 [1, 7]: > 5.70
pIC50 [2, 5]: < 3.90

COc1ccc(C=NNc2ncnc3c(C)c(I)sc23)cc1O [Compound 375, 3-Hydroxy-4-methoxybenzaldehyde(6-iodo-7-methylthieno[3,2-d]pyrimidin-4-yl)hydrazone]
pIC50 [1, 6]: ≥ 5.70
pIC50 [1, 7]: > 5.70
pIC50 [2, 5]: < 3.94

Cc1c(-c2ccsc2)sc2c(NN=Cc3cccnc3)ncnc12 [Compound 379, 3-Pyridinecarboxaldehyde(7-methyl-6-(3-thienyl)thieno[3,2-d]pyrimidin-4-yl)hydrazone]
pIC50 [1, 6]: ≥ 5.70
pIC50 [1, 7]: > 5.70
pIC50 [2, 5]: < 3.85

Cc1c(-c2ccsc2)sc2c(NN=Cc3cccs3)ncnc12 [Compound 381, 2-Thiopnhenecarboxaldehyde(7-methyl-6-(3-thienyl)thieno[3,2-d]pyrimidin-4-yl)hydrazone]
pIC50 [1, 6]: ≥ 5.70
pIC50 [1, 7]: > 5.70
pIC50 [2, 5]: < 3.85

Cc1c(-c2ccccc2Cl)sc2c(NN=Cc3cccnc3)ncnc12 [Compound 389, 3-Pyridinecarboxaldehyde(6-(2-chlorophenyl)7-methylthieno[3,2-d]pyrimidin-4-yl)hydrazone]
pIC50 [1, 6]: ≥ 5.70
pIC50 [1, 7]: > 5.70
pIC50 [2, 5]: < 3.88

Cc1c(-c2ccccc2Cl)sc2c(NN=Cc3cccs3)ncnc12 [Compound 391, 2-Thiophenecarboxaldehyde(6-(2-chlorophenyl)7-methylthieno[3,2-d]pyrimidin-4-yl)hydrazone]
pIC50 [1, 6]: ≥ 5.70
pIC50 [1, 7]: > 5.70
pIC50 [2, 5]: < 3.89

Ic1cc2ncnc(NN=Cc3cccnc3)c2s1 [Compound 394, 3-Pyridinecarboxaldehyde(6-iodothieno[3,2-d]pyrimidin-4-yl)hydrazone]
pIC50 [1, 6]: ≥ 5.70
pIC50 [1, 7]: > 5.70
pIC50 [2, 5]: < 3.88

COc1ccc(C=NNc2ncnc3cc(I)sc23)cc1O [Compound 397, 3-Hydroxy-4-Methoxybenzaldehyde(6-iodothieno[3,2-d]pyrimidin-4-yl)hydrazone]
pIC50 [1, 6]: ≥ 5.70
pIC50 [1, 7]: > 5.70
pIC50 [2, 5]: < 3.93

COc1ccc(-c2cc3ncnc(NN=Cc4ccc(OC)c(O)c4)c3s2)cc1 [Compound 408, 3-Hydroxy-4-methoxybenzaldehyde(6-(4-methoxyphenyl)thieno[3,2-d]pyrimidin-4-yl)hydrazone]
pIC50 [1, 6]: ≥ 5.70
pIC50 [1, 7]: > 5.70
pIC50 [2, 5]: < 3.91

COc1ccc(-c2sc3c(NN=Cc4cccnc4)ncnc3c2C)cc1 [Compound 422, 3-Pyridinecarboxaldehyde(6-(4-methoxyphenyl)-7-methylthieno[3,2-d]pyrimidin-4-yl)hydrazone]
pIC50 [1, 6]: ≥ 5.70
pIC50 [1, 7]: > 5.70
pIC50 [2, 5]: < 3.88

COc1ccc(-c2sc3c(NN=Cc4ccc(OC)c(O)c4)ncnc3c2C)cc1 [Compound 425, 3-Hydroxy-4-methoxybenzaldehyde(6-(4-methoxyphenyl)-7-methylthieno[3,2-d]pyrimidin-4-yl)hydrazone]
pIC50 [1, 6]: ≥ 5.70
pIC50 [1, 7]: > 5.70
pIC50 [2, 5]: < 3.92

COc1cccc(-c2sc3c(NN=Cc4cccnc4)ncnc3c2C)c1 [Compound 426, 3-Pyridinecarboxaldehyde(6-(3-methoxyphenyl)-7-methylthieno[3,2-d]pyrimidin-4-yl)hydrazone]
pIC50 [1, 6]: ≥ 5.70
pIC50 [1, 7]: > 5.70
pIC50 [2, 5]: < 3.88

COc1cccc(-c2sc3c(NN=Cc4cccs4)ncnc3c2C)c1 [Compound 428, 2-Thiophenecarboxaldehyde(6-(3-methoxyphenyl)-7-methylthieno[3,2-d]pyrimidin-4-yl)hydrazone]
pIC50 [1, 6]: ≥ 5.70
pIC50 [1, 7]: > 5.70
pIC50 [2, 5]: < 3.88

COc1cccc(-c2sc3c(NN=Cc4ccc(OC)c(O)c4)ncnc3c2C)c1 [Compound 429, 3-Hydroxy-4-methoxybenzaldehyde(6-(3-methoxyphenyl)-7-methylthieno[3,2-d]pyrimidin-4-yl)hydrazone]
pIC50 [1, 6]: ≥ 5.70
pIC50 [1, 7]: > 5.70
pIC50 [2, 5]: < 3.92

COc1ccccc1-c1sc2c(NN=Cc3cccnc3)ncnc2c1C [Compound 432, 3-Pyridinecarboxaldehyde(6-(2-methoxyphenyl)-7-methylthieno[3,2-d]pyrimidin-4-yl)hydrazone]
pIC50 [1, 6]: ≥ 5.70
pIC50 [1, 7]: > 5.70
pIC50 [2, 5]: < 3.88

Cc1c(-c2ccc(CO)cc2)sc2c(NN=Cc3cccnc3)ncnc12 [Compound 436, 3-Pyridinecarboxaldehyde(6-(4-hydroxymethylphenyl)-7-methylthieno[3,2-d]pyrimidin-4-yl)hydrazone]
pIC50 [1, 6]: ≥ 5.70
pIC50 [1, 7]: > 5.70
pIC50 [2, 5]: < 3.88

Cc1c(-c2ccc(CO)cc2)sc2c(NN=Cc3cccs3)ncnc12 [Compound 438, 2-Thiophenecarboxaldehyde(6-(4-hydroxymethylphenyl)-7-methylthieno[3,2-d]pyrimidin-4-yl)hydrazone]
pIC50 [1, 6]: ≥ 5.70
pIC50 [1, 7]: > 5.70
pIC50 [2, 5]: < 3.88

COc1ccc(C=NNc2ncnc3c(C)c(-c4ccc(CO)cc4)sc23)cc1O [Compound 439, 3-Hydroxy-4-methoxybenzaldehyde(6-(4-hydroxymethylphenyl)-7-methylthieno[3,2-d]pyrimidin-4-yl)hydrazone]
pIC50 [1, 6]: ≥ 5.70
pIC50 [1, 7]: > 5.70
pIC50 [2, 5]: < 3.92

Cc1c(-c2cccc(CO)c2)sc2c(NN=Cc3cccs3)ncnc12 [Compound 442, 2-Thiophenecarboxaldehyde(6-(3-hydroxymethylphenyl)-7-methylthieno[3,2-d]pyrimidin-4-yl)hydrazone]
pIC50 [1, 6]: ≥ 5.70
pIC50 [1, 7]: > 5.70
pIC50 [2, 5]: < 3.88

Cc1c(/C=C/c2ccccc2)sc2c(NN=Cc3cccnc3)ncnc12 [Compound 447, 3-Pyridinecarboxaldehyde(7-methyl-6-(trans-2-phenylvinyl)-thieno[3,2-d]pyrimidin-4-yl)hydrazone]
pIC50 [1, 6]: ≥ 5.70
pIC50 [1, 7]: > 5.70
pIC50 [2, 5]: < 3.87

COc1ccc(C=NNc2ncnc3c(C)c(C(Cc4ccccc4)c4ccccc4)sc23)cc1O (stereo not drawn) [Compound 475, 3-Hydroxy-4-methoxybenzaldehyde(6-(1-benzyl-1-phenyl)methyl-7-methylthieno[3,2-d]pyrimidin-4-yl)hydrazone]
pIC50 [1, 6]: ≥ 5.70
pIC50 [1, 7]: > 5.70
pIC50 ([2]; poly E4Y and 32P-ATP): < 4.00

CCO.Cc1csc2c(NN=Cc3cccnc3)ncnc12.Cc1csc2c(NN=Cc3cccnc3)ncnc12 [Compound 499]
pIC50 ([1]; Table 4, read-out: Src IC50): 5.07
Csk IC50 [2, 4]: NI (NI = no inhibition upto 50 ug/mL)
FGFr IC50 [3, 4]: NI (NI = no inhibition upto 50 ug/mL)

CCO.Cc1csc2c(NN=Cc3cccs3)ncnc12.Cc1csc2c(NN=Cc3cccs3)ncnc12 [Compound 501]
pIC50 ([1]; Table 4, read-out: Src IC50): 4.97
Csk IC50 [2, 4]: NI (NI = no inhibition upto 50 ug/mL)
FGFr IC50 [3, 4]: NI (NI = no inhibition upto 50 ug/mL)
